Earlier results in patent US10864334B2, “Nasal delivery” (OptiNose AS, priority 2006, dated 2020).
Where two headings read alike, the source gives them in different places.

What was measured:
[1] = in vivo
[2] = intranasal; aqueous spray versus nasal drops; systemic bio-availability

Row | bio-availability of the nasal spray formulation relative to the nasal drop formulation [1] | bio-availability of the nasal spray formulation relative to the nasal drop formulation [2] | Compound
1 | two to three times higher |  | NC(=O)CC[C@@H]1NC(=O)[C@H](Cc2ccccc2)NC(=O)[C@H](Cc2ccc(O)cc2)NC(=O)CCSSC[C@@H](C(=O)N2CCC[C@H]2C(=O)N[C@H](CCCN=C(N)N)C(=O)NCC(N)=O)NC(=O)[C@H](CC(N)=O)NC1=O [desmopressin]
2 |  | about eight times higher | CCC(=O)O[C@]1(C(=O)SCF)[C@H](C)C[C@H]2[C@@H]3C[C@H](F)C4=CC(=O)C=C[C@]4(C)[C@@]3(F)[C@@H](O)C[C@@]21C [fluticasone propionate]
